What was measured:
[1] = test system: human T lymphoblastoid cells of the CEM line bearing the antigen T-65
mouse = conditions: intra-peritoneally, Westley 1977; cited from earlier work
[2] = Acute toxicity of monensin, single intra-peritoneal administration (own experiments); format: in vivo, mouse; conditions: mouse, in vivo, ip; single administration intra-peritoneally; read-out: 50% lethal dose, per body weight
Experimental: (§1) Thus the acute toxicity of monensin in a single administration intra-peritoneally in the Charles River France mouse is characterised by a 50% lethal dose of 340 micrograms per mouse, namely 17 mg/kg of body weight.

[3] = test system: Charles River France mouse; experiment: as above; format: in vivo; conditions: single administration intra-peritoneally
Experimental: as §1

CC[C@@H](C(=O)[C@@H](C)[C@@H](O)[C@H](C)CCc1ccc(C)c(O)c1C(=O)O)[C@H]1O[C@](CC)([C@H]2CC[C@](O)(CC)[C@H](C)O2)C[C@@H]1C [Lasalocide, lasalocide]
potentiating effect (factor) on the cytotoxicity of immunotoxin anti-T-65 [1]: ~36000
spontaneous cytotoxicity of the ionophore for the cells employed [1]: not spontaneously cytotoxic
50% lethal dose (LD50) (mouse): 64 mg/kg

CC[C@@]1([C@@H]2O[C@@H]([C@H]3O[C@@](O)(CO)[C@H](C)C[C@@H]3C)C[C@@H]2C)CC[C@H]([C@]2(C)CC[C@]3(C[C@H](O)[C@@H](C)[C@@H]([C@@H](C)[C@@H](OC)[C@H](C)C(=O)O)O3)O2)O1 [Monensin, monensin]
LD50 [2]: 17 mg/kg
50% lethal dose, per mouse [3]: 340 micrograms per mouse
potentiating effect (factor) on the cytotoxicity of immunotoxin anti-T-65 [1]: ~55000
spontaneous cytotoxicity of the ionophore for the cells employed [1]: not spontaneously cytotoxic
50% lethal dose (LD50) (mouse): 16.8 mg/kg

CO[C@@H]1C[C@@H](C[C@H]2CC[C@H](C)[C@H]([C@@H](C)C(=O)O)O2)O[C@]2(O[C@](C)([C@H]3CC[C@@](C)([C@@H]4O[C@@H]([C@H]5O[C@@](O)(CO)[C@H](C)C[C@@H]5C)C[C@@H]4C)O3)C[C@H]2C)[C@@H]1C [Nigericin, nigericin]
potentiating effect (factor) on the cytotoxicity of immunotoxin anti-T-65 [1]: ~7000
spontaneous cytotoxicity of the ionophore for the cells employed [1]: not spontaneously cytotoxic
50% lethal dose (LD50) (mouse): 65 mg/kg
